Measurements reported in patent US10196403B2, “Compounds and compositions and uses thereof” (Sunovion Pharmaceuticals Inc., priority 2016, dated 2019).

System: mice
Assay: Neuropharmacological Assay (SmartCube)
Format: in vivo
Conditions: for minimal effective dose: Mus musculus, MED = dose having 50% or more total activity in SmartCube, read-out: POTENCY (minimal effective dose, MED); for AD: ADHD (SmartCube probability) / AG: analgesic (SmartCube probability) / AX: anxiolytic (SmartCube probability) / CE: cognitive enhancer (SmartCube probability) / DP: anti-depressant (SmartCube probability) / MS: mood stabilizer (SmartCube probability) / PS: anti-psychotic (SmartCube probability) / SD: sedative hypnotic (SmartCube probability) / UN: uncharacterized CNS activity (SmartCube probability): mice, i.p. 15 min before test, most efficacious dose(s) of 3 doses
Method in brief: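 Compounds in NMP/PEG/propylene glycol given i.p. 15 min before automated video-based behavioral testing, at 3 doses; behavioral signature compared with a reference-compound database to give probability per drug class, reported at most efficacious dose. MED = dose (mpk) giving ≥50% total activity; doses typically 0.3–30 mpk.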

Row | Compound | minimal effective dose | AD: ADHD (SmartCube probability) | AG: analgesic (SmartCube probability) | AX: anxiolytic (SmartCube probability) | CE: cognitive enhancer (SmartCube probability) | DP: anti-depressant (SmartCube probability) | MS: mood stabilizer (SmartCube probability) | PS: anti-psychotic (SmartCube probability) | SD: sedative hypnotic (SmartCube probability) | UN: uncharacterized CNS activity (SmartCube probability)
1 | CNC[C@@H]1OCc2cccc(F)c21 [Example 69, (R)-1-(7-fluoro-1,3-dihydroisobenzofuran-1-yl)-N-methylmethanamine] | < 3 mg/kg | ++ (5%≤ ++ <25%) | +++ (25%≤ +++ <50%) | ++ (5%≤ ++ <25%) | + (LOQ≤ + <5%) | ++ (5%≤ ++ <25%) | ++ (5%≤ ++ <25%) | ++ (5%≤ ++ <25%) | + (LOQ≤ + <5%) | ++++ (50%≤ ++++)
2 | NC[C@H]1OCCc2cccc(Cl)c21 [Example 70, (S)-(8-chloroisochroman-1-yl)methanamine] | 3 to 10 mg/kg | + (LOQ≤ + <5%) | ++ (5%≤ ++ <25%) | ++ (5%≤ ++ <25%) | ++ (5%≤ ++ <25%) | ++ (5%≤ ++ <25%) | + (LOQ≤ + <5%) | +++ (25%≤ +++ <50%) | ++ (5%≤ ++ <25%) | +++ (25%≤ +++ <50%)
3 | NC[C@@H]1OCCc2cccc(Cl)c21 [Example 71, (R)-(8-chloroisochroman-1-yl)methanamine] | < 3 mg/kg | + (LOQ≤ + <5%) | ++ (5%≤ ++ <25%) | ++ (5%≤ ++ <25%) | ++ (5%≤ ++ <25%) | + (LOQ≤ + <5%) | + (LOQ≤ + <5%) | ++ (5%≤ ++ <25%) | + (LOQ≤ + <5%) | ++++ (50%≤ ++++)
4 | Cc1cccc2c1CCO[C@@H]2CN [Example 72, (S)-(5-methylisochroman-1-yl)methanamine] | 3 to 10 mg/kg | + (LOQ≤ + <5%) | + (LOQ≤ + <5%) | ++ (5%≤ ++ <25%) | + (LOQ≤ + <5%) | ++ (5%≤ ++ <25%) | + (LOQ≤ + <5%) | + (LOQ≤ + <5%) | + (LOQ≤ + <5%) | +++ (25%≤ +++ <50%)
5 | Cc1cccc2c1CCO[C@H]2CN [Example 73, (R)-(5-methylisochroman-1-yl)methanamine] | < 3 mg/kg | + (LOQ≤ + <5%) | + (LOQ≤ + <5%) | ++ (5%≤ ++ <25%) | ++ (5%≤ ++ <25%) | +++ (25%≤ +++ <50%) | + (LOQ≤ + <5%) | + (LOQ≤ + <5%) | ++ (5%≤ ++ <25%) | ++++ (50%≤ ++++)
6 | Cc1cccc2c1[C@@H](CN)OCC2 [Example 74, (S)-(8-methylisochroman-1-yl)methanamine] | 10 to 30 mg/kg | + (LOQ≤ + <5%) | + (LOQ≤ + <5%) | ++ (5%≤ ++ <25%) | + (LOQ≤ + <5%) | + (LOQ≤ + <5%) | + (LOQ≤ + <5%) | + (LOQ≤ + <5%) | ++ (5%≤ ++ <25%) | +++ (25%≤ +++ <50%)
7 | Cc1cccc2c1[C@H](CN)OCC2 [Example 75, (R)-(8-methylisochroman-1-yl)methanamine] | 3 to 10 mg/kg | + (LOQ≤ + <5%) | ++ (5%≤ ++ <25%) | ++ (5%≤ ++ <25%) | ++ (5%≤ ++ <25%) | ++ (5%≤ ++ <25%) | + (LOQ≤ + <5%) | ++ (5%≤ ++ <25%) | + (LOQ≤ + <5%) | ++++ (50%≤ ++++)
8 | CNC[C@H]1OCCc2c1cccc2C(F)(F)F [Example 78, (S)-N-methyl-1-(5-(trifluoromethyl)isochroman-1-yl)-methanamine] | 10 to 30 mg/kg | + (LOQ≤ + <5%) | ++ (5%≤ ++ <25%) | ++ (5%≤ ++ <25%) | + (LOQ≤ + <5%) | ++ (5%≤ ++ <25%) | + (LOQ≤ + <5%) | + (LOQ≤ + <5%) | + (LOQ≤ + <5%) | ++++ (50%≤ ++++)
9 | CNC[C@@H]1OCCc2c1cccc2C(F)(F)F [Example 79] | < 3 mg/kg | ++ (5%≤ ++ <25%) | + (LOQ≤ + <5%) | + (LOQ≤ + <5%) | + (LOQ≤ + <5%) | ++++ (50%≤ ++++) | + (LOQ≤ + <5%) | + (LOQ≤ + <5%) | ++ (5%≤ ++ <25%) | + (LOQ≤ + <5%)
10 | CNC[C@H]1OCCc2cc(Cl)ccc21 [Example 80, (S)-1-(6-chloroisochroman-1-yl)-N-methylmethanamine] | 10 to 30 mg/kg | + (LOQ≤ + <5%) | + (LOQ≤ + <5%) | ++ (5%≤ ++ <25%) | ++ (5%≤ ++ <25%) | ++ (5%≤ ++ <25%) | + (LOQ≤ + <5%) | +++ (25%≤ +++ <50%) | + (LOQ≤ + <5%) | + (LOQ≤ + <5%)
11 | CNC[C@@H]1OCCc2cc(Cl)ccc21 [Example 81, (R)-1-(6-chloroisochroman-1-yl)-N-methylmethanamine] | < 3 mg/kg | ++ (5%≤ ++ <25%) | + (LOQ≤ + <5%) | ++ (5%≤ ++ <25%) | + (LOQ≤ + <5%) | ++++ (50%≤ ++++) | + (LOQ≤ + <5%) | + (LOQ≤ + <5%) | + (LOQ≤ + <5%) | ++ (5%≤ ++ <25%)
12 | CN(C)C[C@H]1OCCc2cccc(F)c21 [Example 84, (S)-1-(8-fluoroisochroman-1-yl)-N,N-dimethylmethanamine] | < 3 mg/kg | + (LOQ≤ + <5%) | ++ (5%≤ ++ <25%) | ++ (5%≤ ++ <25%) | ++ (5%≤ ++ <25%) | ++ (5%≤ ++ <25%) | + (LOQ≤ + <5%) | ++ (5%≤ ++ <25%) | ++ (5%≤ ++ <25%) | ++++ (50%≤ ++++)
13 | CN(C)C[C@@H]1OCCc2cccc(F)c21 [Example 85, (R)-1-(8-fluoroisochroman-1-yl)-N,N-dimethylmethanamine] | < 3 mg/kg | + (LOQ≤ + <5%) | + (LOQ≤ + <5%) | +++ (25%≤ +++ <50%) | ++ (5%≤ ++ <25%) | ++ (5%≤ ++ <25%) | + (LOQ≤ + <5%) | ++ (5%≤ ++ <25%) | ++ (5%≤ ++ <25%) | +++ (25%≤ +++ <50%)
14 | CCNC[C@H]1OCCc2cccc(F)c21 [Example 86, (S)-N-((8-fluoroisochroman-1-yl)methyl)ethanamine] | 10 to 30 mg/kg | ++ (5%≤ ++ <25%) | + (LOQ≤ + <5%) | ++ (5%≤ ++ <25%) | ++ (5%≤ ++ <25%) | ++ (5%≤ ++ <25%) | + (LOQ≤ + <5%) | ++ (5%≤ ++ <25%) | +++ (25%≤ +++ <50%) | + (LOQ≤ + <5%)
15 | CCNC[C@@H]1OCCc2cccc(F)c21 [Example 87, (R)-N-((8-fluoroisochroman-1-yl)methyl)ethanamine] | < 3 mg/kg | + (LOQ≤ + <5%) | ++ (5%≤ ++ <25%) | ++ (5%≤ ++ <25%) | + (LOQ≤ + <5%) | ++ (5%≤ ++ <25%) | + (LOQ≤ + <5%) | ++ (5%≤ ++ <25%) | + (LOQ≤ + <5%) | ++++ (50%≤ ++++)
